From paper PMC5384453, “A multi-functional PEGylated gold(III) compound: potent anti-cancer properties and self-assembly into nanostructures for drug co-delivery” (Chemical Science, 2016)

System: HCT116 cells
Assay: Flow cytometric analysis of apoptosis with propidium iodide co-staining (Fig. S14, S15)
Assay type: cell-based, human
Settings: HCT116, 2 μM
Protocol: with gold(III) complexes and FITC-annexin V staining. HCT116 (1×10 5 cells) and […]
annexin-binding buffer solution. The cells were then incubated with FITC-annexin V […]
at room temperature in dark for 15 min. The solution was then removed, and the cells were washed with annexin-binding buffer solution. Fluorescence images were then […]
in ice and analyzed by flow cytometry immediately. […]
staining and flow cytometry. […]
atmosphere of 5% CO2. After reaching 80% confluency, the culture medium was […]
of 5% CO2 for 45 min. The solution was then removed. The stained NCM460 cells […]
the procedure described above. […]
right fore of BALB/c nude mice. When the tumor volume reached 70 mm3 after […]
propidium iodide staining. (b) Flow cytometric analysis of NCM460 […]
annexin V and propidium iodide staining. (c) Flow cytometric analysis […]
annexin V and propidium iodide staining.

[Au(TPP–COO–PEG5000–OCH3)]Cl [Compound 1]
apoptotic cells (Q4 region, corrected) (24 h): 35.83%
late apoptotic events (Q2 region, corrected) (24 h): 1.96%
apoptotic cells (Q4 region, corrected) (36 h): 43.83%
late apoptotic events (Q2 region, corrected) (36 h): 10.6%
